Test system: transcription regulatory region for a human-derived Type I collagen α2 chain gene
Test: TGF-β-promoted transcription of a Type I collagen gene, COL-Luc luciferase reporter assay
Format: cell-based
Details: normal human fetal skin fibroblast transfected with COL-Luc, TGF-β added, 40 hours, read-out: Inhibition percentage of the ability of TGF-β to promote transcription of a Type I collagen gene; for inhibition at 3 µM: compound final concentration 3 μM; for inhibition at 1 µM: compound final concentration 1 μM; for inhibition at 10 µM: compound final concentration 10 μM
Experimental: 1×10^8 cells of a normal human fetal skin fibroblast (Clontech, catalogue No. CC-2509) were cultured at 37° C. overnight under 5% CO2 atmosphere. After the cultured cells were washed with a sodium phosphate buffer (hereinafter, referred to as PBS) twice, 3 ml of PBS was added thereto and the cells were scraped away the wall of a vessel using a cell scraper (Nalgen, catalogue No. 179693). The scraped cells were collected by centrifugation (1,500 rpm, 4° C., 15 min), and these were suspended in 20 ml of PBS and centrifuged again. To the resulting precipitates were added 11 ml of Solution 2 and 4.8 μl of pronase of DNA Extraction Kit (Stratagene, catalogue No. 200600). After shaken at 60° C. for 1 hour, the resulting mixture was allowed to stand in ice for 10 minutes. Then, 4 ml of Solution 3 of the kit was added to the mixture. After mixed, the mixture was allowed to stand in ice for 5 minutes and then centrifuged (3,000 rpm, 4° C., 15 min) to recover a supernatant. To the recovered supernatant was added 2 μl of RNase per 1 ml of the supernatant and the mixture was allowed to stand at 37° C. for 15 minutes. To the mixture was added 2-fold volume of ethanol. After mixed, a white thread-like substance (genomic DNA) appeared and the substance was recovered. The recovered genomic DNA was washed with 70% ethanol and then air-dried. The air-dried genomic DNA was dissolved in 500 μl of 10 mM Tris-HCl, 1 mM EDTA (pH 8.0) (hereinafter, referred to as TE).
The resulting genomic DNA-dissolved solution (genomic DNA 1 μg corresponding amount) was mixed with each 1 μl of an oligonucleotide consisting of a base sequence represented by SEQ ID No.: 1 (SEQ ID No. 1: an oligonucleotide primer designed to amplify a collagen promoter DNA: ccaagctagc gaaattatct tttctttcat ag 32) and an oligonucleotide ([…]) consisting of a base sequence represented by SEQ ID No.:2 (SEQ ID No. 2: an oligonucleotide primer designed to amplify a collagen promoter DNA: ccaaaagctt gcagtcgtgg ccagtacc 28), 29 μl of distilled water, 5 μl of a buffer attached to TaKaRa LA Taq (TAKARA SHUZO Co., Ltd., catalogue No. RR002A), 5 μl of a Mg^2+ solution, 5 μl of a dNTP mixture and 0.5 μl of TaKaRa LA Taq (TAKARA SHUZO Co., Ltd., catalogue No. RR002A). After the resulting mixed solution was incubated at 94° C. for 5 minutes, the mixed solution was subjected to 30 cycles, in which one cycle consists of incubation at 94° C. for 1 minute, at 60° C. for 1 minute and then at 72° C. for 1 minute. The mixed solution was electrophoresed on a 2% agarose gel to recover about 0.5 kb of a DNA. The recovered DNA was treated with phenol/chloroform and then precipitated with ethanol to recover the DNA. The resulting DNA was dissolved in ultrapure water. To this solution were added 2.5 μl of NheI and 2.5 μl of HindIII, and then incubated at 37° C. for 3 hours. Then, the solution was electrophoresed on a 2% agarose gel to recover about 3.5 kb of a DNA. The recovered DNA was precipitated with ethanol to recover again the DNA (hereinafter, referred to as the collagen promoter DNA).
On the other hand, the vector pGL3 (Promega, catalogue No. E1751) having the nucleotide sequence encoding firefly luciferase was digested with NheI and HindIII, and then subjected to agarose gel electrophoresis as described above to recover about 5 kb of a DNA. The recovered DNA was precipitated with ethanol to recover the DNA again. To the recovered DNA were added 44 μl of distilled water, 5 μl of Buffer attached to Alkaline Phosphatase (TAKARA SHUZO, catalogue No. 2120A) and 1 μl of Alkaline Phosphatase (TAKARA SHUZO, catalogue No. 2120A). The mixed solution was incubated at 65° C. for 30 minutes. Then, the mixed solution was treated with phenol/chloroform twice, and precipitated with ethanol to recover the DNA (hereinafter referred to as the Luc vector DNA). […]

Compound	inhibition at 3 µM [%]	further results
COC(=O)COc1cccc(C=CC(=O)C2=C(O)c3ccccc3S(=O)(=O)N2C)c1 [(1b), 4-hydroxy-3-[3-[3-[(methoxycarbonyl)methoxy]phenyl]acryloyl]-2-methyl-2H-1,2-benzothiazine-1,1-dioxide]	≥ 70	–
COCC(=O)Nc1cccc(C=CC(=O)C2=C(O)c3ccccc3S(=O)(=O)N2C)c1 [(5b), 4-hydroxy-3-[3-[3-(methoxyacetylamino)phenyl]acryloyl]-2-methyl-2H-1,2-benzothiazine-1,1-dioxide]	–	inhibition at 1 µM: ≥ 70%
COCCNC(=O)c1cccc(C=CC(=O)C2=C(O)c3ccccc3S(=O)(=O)N2C)c1 [(10b), 4-hydroxy-3-[3-[3-[(2-methoxyethyl)aminocarbonyl]phenyl}acryloyl]-2-methyl-2H-1,2-benzothiazine-1,1-dioxide]	≥ 70	–
COC(=O)COc1cccc(C=CC(=O)c2ccc(C)[nH]c2=O)c1 [(11c), 3-[3-[3-[(methoxycarbonyl)methoxy]phenyl]-1-oxo-2-propenyl]-6-methyl-2(1H)-pyridinone]	–	inhibition at 10 µM: ≥ 70%
COC(=O)CNC(=O)c1cccc(C=CC(=O)C2=C(O)c3ccccc3S(=O)(=O)N2C)c1 [(13b), 4-hydroxy-3-[3-[3-[[(methoxycarbonylmethyl)amino]carbonyl]phenyl}acryloyl]-2-methyl-2H-1,2-benzothiazine-1,1-dioxide]	≥ 70	–
CN1C(C(=O)C=Cc2cccc(OCCO)c2)=C(O)c2ccccc2S1(=O)=O [(16b), 4-hydroxy-3-[3-[3-(2-hydroxyethoxy)phenyl]acryloyl]-2-methyl-2H-1,2-benzothiazine-1,1-dioxide]	–	inhibition at 1 µM: ≥ 70%
Cc1ccc(C(=O)/C=C/c2cccc(OCCO)c2)c(=O)[nH]1 [(16c), 3-[3-[3-(2-hydroxyethoxy)phenyl]-1-oxo-2-propenyl]-6-methyl-2(1H)-pyridinone]	–	inhibition at 10 µM: ≥ 70%
COCC(=O)Nc1cccc(C=CC(=O)c2c(O)c3cccnc3n(C)c2=O)c1 [(19a), 4-hydroxy-1-methyl-3-[3-[3-(methoxyacetylamino)phenyl]acryloyl]-1H-[1,8]naphthyridin-2-one]	≥ 70	–
COCC(=O)Nc1ccc(C=CC(=O)c2c(O)c3cccnc3n(C)c2=O)cc1 [(20a), 4-hydroxy-1-methyl-3-[3-[4-(methoxyacetylamino)phenyl]acryloyl]-1H-[1,8]naphthyridin-2-one]	–	inhibition at 10 µM: ≥ 70%
COCCNC(=O)c1cccc(C=CC(=O)c2c[nH]c3ccccc3c2=O)c1 [(23c), 3-[3-[3-[(2-methoxyethyl)aminocarbonyl]phenyl}acryloyl]-4(1H)-quinolinone]	–	inhibition at 1 µM: ≥ 70%
COCCNC(=O)c1cccc(C=CC(=O)c2cn(C)c3ccccc3c2=O)c1 [(24c), 3-[3-[3-[(2-methoxyethyl)aminocarbonyl]phenyl}acryloyl]-1-methyl-4(1H)-quinolinone]	≥ 70	–
COC(=O)CNC(=O)c1cccc(C=CC(=O)c2c(O)c3cccnc3n(C)c2=O)c1 [(29a), 4-hydroxy-1-methyl-3-[3-[3-[[(methoxycarbonylmethyl)amino]carbonyl]phenyl}acryloyl]-1H-[1,8]naphthyridin-2-one]	≥ 70	–
COCCNC(=O)c1cccc(C=CC(=O)c2c(O)c3cccnc3[nH]c2=O)c1 [(31a), 4-hydroxy-3-[3-[3-[(2-methoxyethyl)aminocarbonyl]phenyl}acryloyl]-1H-[1,8]naphthyridin-2-one]	≥ 70	–
COCCNC(=O)c1cccc(C=CC(=O)c2c(O)c3cccnc3n(C)c2=O)c1 [(32a), 4-hydroxy-1-methyl-3-[3-[3-[(2-methoxyethyl)aminocarbonyl]phenyl}acryloyl]-1H-[1,8]naphthyridin-2-one]	≥ 70	–
COC(=O)COc1cccc(C=CC(=O)c2c(O)c3cccnc3n(C)c2=O)c1 [(36a), 4-hydroxy-1-methyl-3-[3-[3-[(methoxycarbonyl)methoxy]phenyl]acryloyl]-1H-[1,8]naphthyridin-2-one]	≥ 70	–
Cn1c(=O)c(C(=O)C=Cc2cccc(OCCO)c2)c(O)c2cccnc21 [(40a), 4-hydroxy-1-methyl-3-[3-[3-(2-hydroxyethoxy)phenyl]acryloyl]-1H-[1,8]naphthyridin-2-one]	≥ 70	–
COCCOC(=O)Nc1cccc(C=CC(=O)c2c(O)c3cccnc3n(C)c2=O)c1 [(42a), 4-hydroxy-1-methyl-3-[3-[3-[(2-methoxyethoxy)carbonylamino]phenyl]acryloyl]-1H-[1,8]naphthyridin-2-one]	≥ 70	–
CN(C)CCOc1cccc(C=CC(=O)c2c(O)c3cccnc3n(C)c2=O)c1 [(56a), 4-hydroxy-1-methyl-3-[3-[3-(2-dimethylaminoethoxy)phenyl]acryloyl]-1H-[1,8]naphthyridin-2-one]	–	inhibition at 10 µM: ≥ 70%
COCCNC(=O)c1cccc(/C=C/C(=O)c2c(O)c3cccnc3n(C)c2=O)n1 [(124a), 4-hydroxy-1-methyl-3-[3-[6-(2-methoxyethyl)aminocarbonyl-2-pyridinyl]acryloyl]-1H-[1,8]naphthyridin-2-one]	–	inhibition at 10 µM: ≥ 70%

— patent US20090143368A1, “Use of Cinnamoyl Compound” (priority 2005, published 2009)
